{"source": "patent US12076329B2", "about": "“Compositions and methods for enhancing visual function” (The Regents of the University of California, priority 2020, dated 2024)", "molecules": {"B1": {"name": "medium wave cone opsin: medium wave (MW) cone opsin expressed in RGCs of rd1 mice, comparator light-activated GPCR (protein, UniProt O35599 1-359, looked up)", "Medium-wave-sensitive opsin 1": "MAQRLTGEQTLDHYEDSTHASIFTYTNSNSTKGPFEGPNYHIAPRWVYHLTSTWMILVVVASVFTNGLVLAATMRFKKLRHPLNWILVNLAVADLAETIIASTISVVNQIYGYFVLGHPLCVIEGYIVSLCGITGLWSLAIISWERWLVVCKPFGNVRFDAKLATVGIVFSWVWAAIWTAPPIFGWSRYWPYGLKTSCGPDVFSGTSYPGVQSYMMVLMVTCCIFPLSIIVLCYLQVWLAIRAVAKQQKESESTQKAEKEVTRMVVVMVFAYCLCWGPYTFFACFATAHPGYAFHPLVASLPSYFAKSATIYNPIIYVFMNRQFRNCILHLFGKKVDDSSELSSTSKTEVSSVSSVSPA"}}, "key": {"[1]": {"system": "GFP-tagged mGluR2", "experiment": "Nanobody-photoswitch conjugate (NPC)-mediated photoswitching of GFP-tagged mGluR2", "assay_type": "cell-based", "details": "SNAP-tagged anti-GFP nanobody labeled with PORTL", "from_the_text": "Finally, a long-term goal of tethered photopharmacology is to incorporate the optical control afforded by such compounds into antibody-mediated targeting of proteins. “Nanobody-photoswitch conjugates” (NPCs) consisting of a SNAP-tagged nanobody labeled with a PORTL have been reported. NPCs containing an anti-GFP nanobody are able to photoactivate GFP-tagged mGluR2, but with limited efficiency (Farrants et al., 2018)."}, "[2]": {"target": "T1, Halo-mGluR2 (Rattus norvegicus, UniProt P31421)", "T1 construct": "expressed in transfected cells; host or cells: HEK 293T", "T1 sequence (P31421 with tags, fused parts or gaps)": "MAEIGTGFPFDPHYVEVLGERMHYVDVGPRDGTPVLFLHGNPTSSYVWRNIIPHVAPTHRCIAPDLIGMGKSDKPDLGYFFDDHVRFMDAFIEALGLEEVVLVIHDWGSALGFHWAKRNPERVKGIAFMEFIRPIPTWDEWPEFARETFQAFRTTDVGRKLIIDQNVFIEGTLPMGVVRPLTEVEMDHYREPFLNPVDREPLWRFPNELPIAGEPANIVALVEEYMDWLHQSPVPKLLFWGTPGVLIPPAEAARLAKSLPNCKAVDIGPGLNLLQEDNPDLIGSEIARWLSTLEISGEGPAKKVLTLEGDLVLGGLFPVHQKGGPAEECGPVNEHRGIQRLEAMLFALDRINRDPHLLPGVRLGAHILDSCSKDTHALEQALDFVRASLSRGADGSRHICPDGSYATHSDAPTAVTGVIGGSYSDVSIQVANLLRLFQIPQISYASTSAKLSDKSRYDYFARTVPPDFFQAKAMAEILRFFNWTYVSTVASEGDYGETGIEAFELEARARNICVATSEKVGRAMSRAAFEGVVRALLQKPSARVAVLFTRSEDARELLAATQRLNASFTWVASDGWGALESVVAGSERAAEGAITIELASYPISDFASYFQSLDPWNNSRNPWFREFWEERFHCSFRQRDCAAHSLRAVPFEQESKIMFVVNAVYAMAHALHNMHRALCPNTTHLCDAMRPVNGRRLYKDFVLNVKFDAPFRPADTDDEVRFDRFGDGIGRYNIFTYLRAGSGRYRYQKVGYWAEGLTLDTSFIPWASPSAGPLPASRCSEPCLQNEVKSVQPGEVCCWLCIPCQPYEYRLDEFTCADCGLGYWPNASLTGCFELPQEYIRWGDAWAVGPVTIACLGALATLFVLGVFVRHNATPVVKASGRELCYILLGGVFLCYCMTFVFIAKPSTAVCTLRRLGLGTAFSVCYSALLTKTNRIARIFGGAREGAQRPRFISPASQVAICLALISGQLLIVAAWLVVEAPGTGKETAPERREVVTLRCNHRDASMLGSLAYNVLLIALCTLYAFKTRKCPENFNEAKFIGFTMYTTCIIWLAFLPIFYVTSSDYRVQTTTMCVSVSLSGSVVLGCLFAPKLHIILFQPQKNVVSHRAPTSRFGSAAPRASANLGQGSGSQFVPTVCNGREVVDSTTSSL", "experiment": "Photoactivation and labeling of Halo-mGluR2, whole cell patch clamp in HEK 293T cells", "assay_type": "cell-based", "protocol": "(§1) Whole cell patch clamp recordings from HEK 293T cells were performed 24-48 hours after transfection as previously described (Farrants et al., 2018). Briefly, voltage clamp recordings at −60 mV were performed in a high potassium (120 mM) solution to enable large inward currents upon receptor activation.\n(§2) Unless otherwise noted, cells were incubated with 1-10 μM of PORTL for 45-60 min at 37° C. in the appropriate extracellular recording solution. Labeling efficiency was determined as previously described (Levitz et al., 2017). Illumination was applied to the entire field of view using a CoolLED pE-4000 through a 40× objective. Light intensity in the sample plane was 1-2 mW/mm^2. pClamp software was used for both data acquisition and control of illumination. All drugs were purchased from Tocris and applied using a gravity-driven perfusion system.\nWith the goal of further expanding the repertoire of PORTLs to a third self-labelling, orthogonal suicide enzyme, the Halo-tag, which reacts specifically with alkyl chlorides (Los et al., 2008), was used. […] Based on the hypothesis that branching Halo-targeting PORTLs would enhance photoswitching, “doubleClAG12” (^2×ClAG12) (Scheme S8 (FIG. 1H); FIG. 2E) was synthesized. […]"}, "[3]": {"target": "T2, SNAP-mGluR2 (Rattus norvegicus, UniProt P31421)", "T2 construct": "expressed in transfected cells; host or cells: HEK293 / HEK 293T, with co-expressed GIRK channel", "T2 sequence (P31421 with tags, fused parts or gaps)": "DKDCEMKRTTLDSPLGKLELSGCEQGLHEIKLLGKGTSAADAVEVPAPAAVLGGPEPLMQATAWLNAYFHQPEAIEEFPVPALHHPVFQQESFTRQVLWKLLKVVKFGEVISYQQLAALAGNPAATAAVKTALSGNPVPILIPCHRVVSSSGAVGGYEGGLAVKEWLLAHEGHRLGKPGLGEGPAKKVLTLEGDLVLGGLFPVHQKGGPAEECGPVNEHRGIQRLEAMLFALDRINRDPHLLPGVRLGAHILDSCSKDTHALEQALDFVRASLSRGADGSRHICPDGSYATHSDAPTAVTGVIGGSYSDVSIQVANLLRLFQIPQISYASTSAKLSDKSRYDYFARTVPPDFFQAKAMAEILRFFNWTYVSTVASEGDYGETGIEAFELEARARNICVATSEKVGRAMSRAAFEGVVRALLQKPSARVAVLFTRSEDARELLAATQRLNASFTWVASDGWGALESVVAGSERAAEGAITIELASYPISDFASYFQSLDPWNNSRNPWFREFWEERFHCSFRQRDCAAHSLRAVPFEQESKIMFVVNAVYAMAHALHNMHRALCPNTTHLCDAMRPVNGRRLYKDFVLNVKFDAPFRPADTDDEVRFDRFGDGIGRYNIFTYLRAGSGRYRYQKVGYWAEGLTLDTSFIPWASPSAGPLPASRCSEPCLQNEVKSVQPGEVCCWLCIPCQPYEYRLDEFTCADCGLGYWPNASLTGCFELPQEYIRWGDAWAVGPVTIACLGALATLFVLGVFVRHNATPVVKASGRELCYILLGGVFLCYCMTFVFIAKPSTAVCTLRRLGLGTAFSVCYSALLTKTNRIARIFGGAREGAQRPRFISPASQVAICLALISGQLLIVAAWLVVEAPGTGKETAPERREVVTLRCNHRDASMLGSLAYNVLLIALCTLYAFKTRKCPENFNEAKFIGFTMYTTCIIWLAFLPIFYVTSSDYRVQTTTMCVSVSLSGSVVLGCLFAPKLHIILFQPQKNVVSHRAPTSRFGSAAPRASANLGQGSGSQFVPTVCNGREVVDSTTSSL", "experiment": "Photoactivation of SNAP-mGluR2 read out as GIRK current, whole cell patch clamp in HEK293 cells", "assay_type": "cell-based", "details": "specificity: applied to cells expressing SNAP-mGluR2, n=3 cells", "protocol": "as §1, §2\nFIG. 3A-3C. Monovalent BGAG12,460 elicits rat SNAP-mGluR2 and human SNAP-mGluR6 GIRK photo-current in HEK293 cells. FIG. 3A. Group II and III mGluRs, like mGluR2 and 6, respectively, couple to GIRK channels in neurons and this system reconstitutes in non-neuronal cell lines, so that SNAP-mGluR2 or 6 coupled to a BGAG photoswitch will be activated by light and induce hyperpolarizing GIRK current. FIG. 3B. Blue (460 nm) light photo-activates BGAG12,460:SNAP-mGluR2 and elicits an inward K+ current from co-expressed GIRK channel in a HEK293 cell voltage clamped at −60 mV with [K+]in=[K+]out=150 mM. FIG. 3C.\nFIG. 4A-4D. Multibranched BGAG12,460 increases potency and sensitivity of SNAP-mGluR2 activation of GIRK channels in HEK293 cells. FIG. 4A. ^4×BGAG12,460 consists of a single BG end for 1:1 attachment to SNAP on each subunit of the mGluR and 4 branches of a 12-PEG linker, with each branch bearing a photoswitchable azobenzene-glutamate (AG). FIG. 4B. […] Dependence of SNAP-mGluR2 photo-activation efficiency, read out as GIRK current, with single, 2-branch and 4-branch BGAG12,460. […]"}, "[4]": {"target": "T3, CLIP-mGluR2 (Rattus norvegicus, UniProt P31421)", "T3 construct": "expressed in transfected cells; host or cells: HEK 293T", "T3 sequence (P31421 with tags, fused parts or gaps)": "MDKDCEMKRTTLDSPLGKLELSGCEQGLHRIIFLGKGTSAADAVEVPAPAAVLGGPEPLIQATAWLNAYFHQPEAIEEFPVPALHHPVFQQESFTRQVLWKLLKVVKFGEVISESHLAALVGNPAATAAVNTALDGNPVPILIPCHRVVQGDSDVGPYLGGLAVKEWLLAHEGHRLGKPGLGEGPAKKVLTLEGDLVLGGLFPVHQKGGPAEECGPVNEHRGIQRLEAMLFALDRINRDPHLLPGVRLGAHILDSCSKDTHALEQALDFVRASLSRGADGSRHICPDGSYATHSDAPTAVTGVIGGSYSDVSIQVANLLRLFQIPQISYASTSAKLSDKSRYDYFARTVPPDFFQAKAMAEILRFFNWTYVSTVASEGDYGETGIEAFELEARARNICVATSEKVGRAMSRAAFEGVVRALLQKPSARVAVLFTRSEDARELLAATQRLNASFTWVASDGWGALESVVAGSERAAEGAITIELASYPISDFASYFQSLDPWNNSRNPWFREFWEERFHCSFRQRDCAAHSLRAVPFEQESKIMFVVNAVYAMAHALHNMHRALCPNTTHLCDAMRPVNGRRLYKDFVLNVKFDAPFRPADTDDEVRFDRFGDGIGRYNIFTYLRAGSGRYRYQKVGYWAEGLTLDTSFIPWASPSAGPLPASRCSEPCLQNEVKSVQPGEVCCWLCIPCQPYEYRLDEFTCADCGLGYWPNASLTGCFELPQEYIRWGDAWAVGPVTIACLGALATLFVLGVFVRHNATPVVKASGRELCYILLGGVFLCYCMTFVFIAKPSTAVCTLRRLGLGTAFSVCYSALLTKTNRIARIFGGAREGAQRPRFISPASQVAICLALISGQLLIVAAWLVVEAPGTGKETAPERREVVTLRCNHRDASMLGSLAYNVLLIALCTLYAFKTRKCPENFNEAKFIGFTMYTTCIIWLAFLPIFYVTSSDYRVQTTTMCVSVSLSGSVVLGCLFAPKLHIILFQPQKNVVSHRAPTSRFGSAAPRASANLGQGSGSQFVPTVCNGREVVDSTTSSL", "experiment": "Photoactivation of CLIP-mGluR2, whole cell patch clamp in HEK 293T cells", "assay_type": "cell-based", "protocol": "as §1, §2"}, "[5]": {"system": "rd1 animals expressing medium wave cone opsin in RGCs", "details": "Berry et al. (2019); cited from earlier work"}, "[6]": {"system": "RGCs from isolated rd1 retina", "experiment": "MEA recordings of RGCs from isolated rd1 retina", "assay_type": "cell-based, mouse", "details": "1 s light flashes", "from_the_text": "FIG. 10A-10C. MEA recordings of RGCs from isolated rd1 retina with either BGAG12,460:SNAP-mGluR2 or medium wave cone opsin in RGCs. A) Superimposed average responses to 1 s light flashes in dozens of RGCs in 3 representative retinas isolated from: wildtype mice (Wt; red), rd1 mice expressing medium wave (MW) cone opsin in RGCs (black), and rd1 mice expressing SNAP-mGluR2 in RGCs (blue) following intravitreal injection of BGAG12,460. […] B) Blue light activation of BGAG12,460:SNAP-mGluR2 evokes an immediate inhibition with a sustained amplitude during illumination, followed by a transient excitatory rebound after termination of illumination. […] As light pulses are shortened, the delay to peak response increases and deactivation slows, (from (Berry et al. (2019) supra)."}, "[7]": {"system": "rd1 animals expressing medium wave cone opsin in RGCs", "experiment": "Line pattern recognition in moving displays, medium wave cone opsin in RGCs", "assay_type": "in vivo, mouse", "details": "expressed in RGCs of rd1 animals", "from_the_text": "The kinetics of onset, decay and recovery of the restored light response are expected to affect the ability to recognize a visual pattern. […] Thus, the speed limit of ^4×BGAG12,460:SNAP-mGluR2 in RGCs is ≥8 cm/s, whereas that of medium wave cone opsin in RGCs is ≤4 cm/s."}}, "note": "“Also recorded” adds a separate entry of the source."}
{"molecule": "Nc1nc(OCc2ccc(CNC(=O)CCCC(=O)NCCOCCOCCOCCOCCOCCOCCOCCOCCOCCOCCOCCOCCC(=O)N[C@H](CCC(=O)NCC(=O)Nc3ccc(/N=N/c4ccc(NC(=O)CCC[C@@H](C[C@H](N)C(=O)O)C(=O)O)cc4)cc3)C(=O)NCC(=O)Nc3ccc(/N=N/c4ccc(NC(=O)CCC[C@@H](C[C@H](N)C(=O)O)C(=O)O)cc4)cc3)cc2)c2nc[nH]c2n1", "note": "[^2×BGAG12]", "values": [{"measurement": "photoswitch efficiency of NPC-mediated photoswitching of mGluR2", "setting": "[1]", "result": "doubled the photoswitch efficiency"}]}
{"molecule": "N[C@@H](C[C@H](CCCC(=O)Nc1ccc(/N=N/c2ccc(NC(=O)CNC(=O)CCOCCOCCOCCOCCOCCOCCOCCOCCOCCOCCOCCOCCNC(=O)CCCC(=O)NCCOCCOCCCCCCCl)cc2)cc1)C(=O)O)C(=O)O", "note": "[ClAG12, (2S,4S)-2-Amino-4-(4-((4-((E)-(4-(61-chloro-4,44,48-trioxo-7,10,13,16,19,22,25,28,31,34,37,40,52,55-tetradecaoxa-3,43,49-triazahenhexacontanamido)phenyl)diazenyl)phenyl)amino)-4-oxobutyl)pentanedioic acid]", "values": [{"measurement": "photoactivation of Halo-mGluR2", "setting": "[2]", "result": "showed photoactivation of mGluR2"}]}
{"molecule": "Nc1ccnc(OCc2ccc(CNC(=O)CCC(=O)N3Cc4ccccc4-c4nnn(CCOCCOCCOCCOCCOCCOCCOCCOCCOCCOCCOCCOCCC(=O)N[C@H](CCC(=O)NCC(=O)Nc5ccc(/N=N/c6ccc(NC(=O)CCC[C@@H](C[C@H](N)C(=O)O)C(=O)O)cc6)cc5)C(=O)NCC(=O)Nc5ccc(/N=N/c6ccc(NC(=O)CCC[C@@H](C[C@H](N)C(=O)O)C(=O)O)cc6)cc5)c4-c4ccccc43)cc2)n1", "note": "[^2×BCAG12]", "values": [{"measurement": "photocurrent relative to 1 mM glutamate", "setting": "[3]", "result": "2.8±0.3", "unit": "%"}, {"measurement": "optical control / efficiency of photoactivation of CLIP-mGluR2", "setting": "[4]", "result": "near-complete optical control; also recorded: enhances efficiency of CLIP-mGluR2 photoactivation compared to BCAG12"}]}
{"molecule": "B1", "values": [{"measurement": "line pattern recognition when the displays move at 1 cm/s", "setting": "[5]", "result": "perform well"}, {"measurement": "latency of RGC response to light onset", "setting": "[6]", "result": "delayed response"}, {"measurement": "line pattern recognition when the display moved at 4 cm/s", "setting": "[7]", "result": "performed at the level of the untreated rd1 animals"}, {"measurement": "speed limit of line pattern recognition in moving displays", "setting": "[7]", "result": "≤ 4", "unit": "cm/s"}]}
